Read-outs that look alike come from different tables or passages of the source.
Key:
[1] = biological target: T1, Human cytomegalovirus DNA polymerase (Human cytomegalovirus, UniProt P08546); assay: CMV polymerase assay (AlphaLISA); type: biochemical; conditions: HCMV polymerase 0.2 nM, 30 min pre-incubation, 60 min at 37° C.
T1 construct: made in house; host or cells: SF21 insect cells (baculovirus vector)
Method: Human cytomegalovirus and varicella zoster virus DNA polymerases were expressed via baculovirus vector in SF21 cells and purified. Heterodimeric nucleic acid substrate used in the herpesvirus polymerase reactions was generated by annealing a 59-mer template to a 17-mer digoxigenin-labeled primer. Polymerase (HCMV final concentration of 0.2 nM; VZV final concentration of 0.4 nM) was combined with an inhibitor compound or DMSO in assay buffer (10 mM HEPES, pH 7.5, 25 mM KCl, 25 mM NaCl, 5 mM MgCl2, 5% glycerol, 0.67 mg/ml bovine serum albumin, and 1 mM tris(2-carboxyethyl)phosphine), and this mixture was pre-incubated for 30 minutes at room temperature in 384-well microtiter plates. The polymerization reaction was initiated by the addition of template/primer substrate (final concentration: 1.6 nM), and dNTPs (final concentration: 24 nM dCTP, 24 nMdGTP, 16 nM dATP, 16 nM dTTP, and 0.8 nM biotin-dUTP). After 60 min incubation at 37° C., reactions were terminated with quench buffer (25 mM HEPES pH 7.5, 100 mM NaCl, 0.25% Tween-20, 12 mM EDTA, and 1 mg/ml bovine serum albumin). Incorporation of biotinylated UTP was detected with 2.5-5 ug/ml anti-DIG AlphaLISA acceptor beads and 5-10 ug/ml streptavidin AlphaLISA donor beads (PerkinElmer). Compound effects were normalized to the window defined by the controls (DMSO only and pre-quenched wells) and were fit using a 4-parameter algorithm to report an IC50.

HCMV Strain AD169 = assay: Viral qPCR assay, HCMV; type: cell-based, Human cytomegalovirus; conditions: MRC-5 cells, 0.05-0.1 pfu/cell, growth media or 50% fetal bovine serum, viral genome copies by qPCR, read-out: CMV Cell (EC50)
Method: (§1) MRC5 cells, Vero cells, and MeWo cells were obtained from ATCC, and were maintained at 37° C./5% CO2/90% relative humidity in Minimal Essential Medium with 10% fetal bovine serum, […] L-glutamine, 100 units/ml penicillin and 100 ug/ml streptomycin. Assay plates were prepared by dispensing compounds dissolved in DMSO into wells of 384 well collagen-coated plates using an ECHO acoustic dispenser. Each compound was tested in a 10-point, serial 3-fold dilution. Controls included uninfected cells and infected cells treated only with DMSO. Assays were initiated by mixing selected cells, in suspension, with virus, and dispensing 50 μl/well infected cells to pre-plated compounds. Plates were incubated at 37° C./5% CO2/90% relative humidity for ˜72 hrs to permit genomic replication, and infected cells were lysed by the addition of an equal volume of lysis buffer (10 mM Tris-HCl, pH8, 50 mM KCl, 2 mM MgCl2, 0.45% NP-40, 0.45% Tween-20, and 100 μg/ml proteinase K). An aliquot of the lysate was transferred to a 384-well PCR plate and incubated at 56° C. for 1 hour and then at 95° C. for 10 min. Levels of a viral gene and of the cellular control, PPIA (Thermo Fisher Assay ID=Hs04194521_s1), were measured in separate 10 ul qPCR assays using TaqMan® Gene Expression Master Mix (Applied Biosystems), and an 7900HT Fast Real-Time PCR System with 384-Well Block Module. 7-point, serial 10-fold dilutions of a plasmid standard were run on each plate to generate a standard curve, and genome copies numbers were calculated by plotting experimental Ct onto linear regression of the standard curve. Viral genome copy numbers were normalized by cellular control copy number, and compound effects were normalized to the window defined by the controls. Calculated % effects were fit using a 4-parameter algorithm, and EC50 was reported.
(§2) MRC5 cells, Vero cells, and MeWo cells were obtained from ATCC, and were maintained at 37° C./5% CO2/90% relative humidity in Minimal Essential Medium with 10% fetal bovine serum, […] L-glutamine, 100 units/ml penicillin and 100 ug/ml streptomycin. Assay plates were prepared by dispensing compounds dissolved in DMSO into wells of 384 well collagen-coated plates using an ECHO acoustic dispenser. Each compound was tested in a 10-point, serial 3-fold dilution. Controls included uninfected cells and infected cells treated only with DMSO. Assays were initiated by mixing selected cells, in suspension, with virus, and dispensing 50 μl/well infected cells to pre-plated compounds. Plates were incubated at 37° C./5% CO2/90% relative humidity for ˜72 hrs to permit genomic replication, and infected cells were lysed by the addition of an equal volume of lysis buffer (10 mM Tris-HCl, pH 8, 50 mM KCl, 2 mM MgC12, 0.45% NP-40, 0.45% Tween-20, and 100 μg/ml proteinase K). An aliquot of the lysate was transferred to a 384-well PCR plate and incubated at 56° C. for 1 hour and then at 95° C. for 10 min. Levels of a viral gene were measured in 10 ul qPCR assays using TaqMan® Gene Expression Master Mix (Applied Biosystems), and an 7900HT Fast Real-Time PCR System with 384-Well Block Module. 7-point, serial 10-fold dilutions of a plasmid standard were run on each plate to generate a standard curve, and genome copies numbers were calculated by plotting experimental Ct onto linear regression of the standard curve. Compound effects on viral genome copy number were normalized to the window defined by the controls. Calculated % effects were fit using a 4-parameter algorithm, and ECso was reported.
HCMV: Strain AD169 Street was assayed in MRC-5 cells and was used at 0.05-0.1 pfu/cell. The assays were performed in either growth media or in the same media with 50% fetal bovine serum. Primer-probe set was Thermo Fisher Assay ID=AIFATFK.

VZV = assay: Viral qPCR assay, VZV; type: cell-based, varicella zoster virus; conditions: MeWo or MRC5 cells, 0.04-0.1 pfu/cell, growth medium, viral genome copies by qPCR
Method: as §1, §2
VZV: Strain Street was maintained as an infected cell stock in MRC-5 cells. It was assayed in MeWo or MRC5 cells and was used at 0.04-0.1 pfu/cell. The assays were performed in growth medium. Primer-probe set was Thermo Fisher Assay ID=AIPAEXQ.

HSV-1 Strain F = assay: Viral qPCR assay, HSV-1; type: cell-based, Herpes Simplex Virus type 1; conditions: Human alphaherpesvirus 1, 72 h, Vero or MRC5 cells, 0.0005-0.004 pfu/cell, growth medium, viral genome copies by qPCR, read-out: HSV1 Cell (EC50)
Method: as §1, §2
HSV-1: Strain F […] was assayed in Vero or MRC5 cells and was used at 0.0005-0.004 pfu/cell in growth medium. Primer-probe set was Thermo Fisher Assay ID=AIBJZIB

[2] = Human betaherpesvirus 5, AD169, MRC5, 72 h

T1 sequence (P08546 whole entry): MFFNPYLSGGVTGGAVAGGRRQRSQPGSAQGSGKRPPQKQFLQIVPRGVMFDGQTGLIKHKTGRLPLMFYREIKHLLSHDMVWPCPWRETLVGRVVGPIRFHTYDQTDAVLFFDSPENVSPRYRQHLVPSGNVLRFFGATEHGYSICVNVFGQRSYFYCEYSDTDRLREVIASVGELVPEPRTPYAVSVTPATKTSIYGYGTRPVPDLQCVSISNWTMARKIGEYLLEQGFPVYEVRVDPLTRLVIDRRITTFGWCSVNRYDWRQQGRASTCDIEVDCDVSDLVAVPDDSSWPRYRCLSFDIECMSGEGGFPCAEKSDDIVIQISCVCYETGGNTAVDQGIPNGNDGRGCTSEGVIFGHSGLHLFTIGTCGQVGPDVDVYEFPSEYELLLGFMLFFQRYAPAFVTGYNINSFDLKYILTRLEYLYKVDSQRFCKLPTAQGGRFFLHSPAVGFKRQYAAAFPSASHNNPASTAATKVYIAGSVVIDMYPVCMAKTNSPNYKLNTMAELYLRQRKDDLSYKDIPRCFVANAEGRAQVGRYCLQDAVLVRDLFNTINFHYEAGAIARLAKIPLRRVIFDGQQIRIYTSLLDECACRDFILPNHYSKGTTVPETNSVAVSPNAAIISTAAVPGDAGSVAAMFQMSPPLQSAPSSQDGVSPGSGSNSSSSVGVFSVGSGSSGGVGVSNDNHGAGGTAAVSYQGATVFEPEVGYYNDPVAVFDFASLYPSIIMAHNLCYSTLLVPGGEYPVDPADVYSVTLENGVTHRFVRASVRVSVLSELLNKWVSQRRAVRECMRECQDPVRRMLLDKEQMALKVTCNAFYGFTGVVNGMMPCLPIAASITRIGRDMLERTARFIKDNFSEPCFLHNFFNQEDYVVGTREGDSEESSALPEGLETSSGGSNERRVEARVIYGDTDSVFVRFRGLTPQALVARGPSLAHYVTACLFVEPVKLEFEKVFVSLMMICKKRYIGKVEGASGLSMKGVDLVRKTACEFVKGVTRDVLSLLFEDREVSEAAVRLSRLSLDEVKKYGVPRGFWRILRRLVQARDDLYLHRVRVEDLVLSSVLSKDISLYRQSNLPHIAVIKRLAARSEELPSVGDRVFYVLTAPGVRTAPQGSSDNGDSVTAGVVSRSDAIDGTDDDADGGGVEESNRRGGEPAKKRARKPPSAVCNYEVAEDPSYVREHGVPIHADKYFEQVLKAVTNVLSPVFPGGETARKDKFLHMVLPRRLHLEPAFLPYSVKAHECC

Row | Compound | IC50 ([1]; read-out: CMV (IC50)) [nM] | EC50 (HCMV Strain AD169; [2]) [nM] | EC50 (VZV; Human alphaherpesvirus 3, 72 h) [nM] | EC50 (HSV-1 Strain F) [nM] | EC50 (HCMV Strain AD169; ~72 hrs) [nM] | EC50 (VZV; ~72 hrs) [nM] | IC50 ([1]; CMV (IC50)) [nM]
1 | COc1nc(-c2cnc(C3CC3)s2)c(O[C@H]2CCN3C(=O)OC[C@@H]3C2)cc1C(=O)NCc1ccc(Cl)cc1 [Compound 63] | 8.74 | 164 | 167 | 148 | – | – | –
2 | COc1nc(C2CC2O)c(O[C@H]2CCN3C(=O)OC[C@@H]3C2)cc1C(=O)NCc1ccc(Cl)cc1 (single isomer, unassigned) [Compound 80] | 98.9 | – | – | – | 3210 | – | –
3 | COc1nc(-c2cc[nH]n2)c(O[C@H]2CCN3C(=O)OC[C@@H]3C2)cc1C(=O)NCc1ccc(Cl)cc1 [Compound 18] | 19.6 | 1200 | – | – | – | – | –
4 | COc1nc(-c2ccn(C)c2)c(O[C@H]2CCN3C(=O)OC[C@@H]3C2)cc1C(=O)NCc1ccc(Cl)cc1 [Compound 30] | 14.5 | 462 | 187 | 202 | – | – | –
5 | COc1nc(C2CC2O)c(O[C@H]2CCN3C(=O)OC[C@@H]3C2)cc1C(=O)NCc1ccc(Cl)cc1 (single isomer, unassigned) [Compound 78] | 49 | – | – | 644 | 616 | 1850 | –
6 | O=C(NCc1ccc(Cl)cc1)c1cc(O[C@H]2CCN3C(=O)OC[C@@H]3C2)c(-c2cnn(C(F)F)c2)nc1OCC1CC1(F)F (stereo partly shown) [Compound 91] | 18.5 | 271 | 569 | 346 | – | – | –
7 | COc1nc(-c2ccc(N)nc2)c(O[C@H]2CCN3C(=O)OC[C@@H]3C2)cc1C(=O)NCc1ccc(Cl)cc1 [Compound 36] | 3.38 | 175 | 92.3 | 82 | – | – | –
8 | CCn1cc(-c2nc(OC)c(C(=O)NCc3ccc(Cl)cc3)cc2O[C@H]2CCN3C(=O)OC[C@@H]3C2)cn1 [Compound 31] | 5.13 | 175 | 102 | 103 | – | – | –
9 | COc1nc(C2CC2O)c(O[C@H]2CCN3C(=O)OC[C@@H]3C2)cc1C(=O)NCc1ccc(Cl)cc1 (single isomer, unassigned) [Compound 77] | – | – | – | – | 872 | – | 31.5
10 | COc1nc(-c2ccccn2)c(O[C@H]2CCN3C(=O)OC[C@@H]3C2)cc1C(=O)NCc1ccc(Cl)cc1 [Compound 52] | 120 | 3480 | – | – | – | – | –
11 | COc1ccc(-c2nc(OC)c(C(=O)NCc3ccc(Cl)cc3)cc2O[C@H]2CCN3C(=O)OC[C@@H]3C2)nc1 [Compound 35] | 79.5 | 1940 | – | – | – | – | –
12 | COc1nc(-c2ccc3cc[nH]c3c2)c(O[C@H]2CCN3C(=O)OC[C@@H]3C2)cc1C(=O)NCc1ccc(Cl)cc1 [Compound 50] | 80.7 | 2760 | – | – | – | – | –
13 | COc1nc(N2CC3(C(C)(C)O)CC2C3)c(O[C@H]2CCN3C(=O)OC[C@@H]3C2)cc1C(=O)NCc1ccc(Cl)cc1 [Compound 69] | 53.9 | 1480 | – | – | – | – | –
14 | COc1nc(-c2ccnc3[nH]ccc23)c(O[C@H]2CCN3C(=O)OC[C@@H]3C2)cc1C(=O)NCc1ccc(Cl)cc1 [Compound 51] | 133 | 3340 | – | – | – | – | –

Continued by falling IC50 ([1]; read-out: CMV (IC50)), values first:

Row | IC50 ([1]; read-out: CMV (IC50)) [nM] | Compound | EC50 (HCMV Strain AD169; [2]) [nM] | EC50 (VZV; Human alphaherpesvirus 3, 72 h) [nM] | EC50 (HSV-1 Strain F) [nM] | EC50 (HCMV Strain AD169; ~72 hrs) [nM] | EC50 (VZV; ~72 hrs) [nM] | IC50 ([1]; CMV (IC50)) [nM]
15 | 193 | COc1nc(-c2cc(C(F)(F)F)nn2C)c(O[C@H]2CCN3C(=O)OC[C@@H]3C2)cc1C(=O)NCc1ccc(Cl)cc1 [Compound 48] | 2010 | – | – | – | – | –
16 | 164 | COc1nccc(-c2nc(OC)c(C(=O)NCc3ccc(Cl)cc3)cc2O[C@H]2CCN3C(=O)OC[C@@H]3C2)n1 [Compound 53] | 3990 | – | – | – | – | –
17 | 131 | COc1nc(-c2cccc3cc[nH]c23)c(O[C@H]2CCN3C(=O)OC[C@@H]3C2)cc1C(=O)NCc1ccc(Cl)cc1 [Compound 49] | 2740 | – | – | – | – | –
18 | 33.6 | COc1nc(-c2cc3nccnc3[nH]2)c(O[C@H]2CCN3C(=O)OC[C@@H]3C2)cc1C(=O)NCc1ccc(Cl)cc1 [Compound 27] | 556 | 859 | 648 | – | – | –
19 | 23.7 | COc1nc(-c2cc3cccc(OC)c3[nH]2)c(O[C@H]2CCN3C(=O)OC[C@@H]3C2)cc1C(=O)NCc1ccc(Cl)cc1 [Compound 54] | 5260 | – | – | – | – | –
20 | 20.3 | COc1nc(-c2cnn(C(C)(C)C)c2)c(O[C@H]2CCN3C(=O)OC[C@@H]3C2)cc1C(=O)NCc1ccc(Cl)cc1 [Compound 11] | 653 | 1270 | 456 | – | – | –
21 | 11 | COc1ccc(-c2nc(OC)c(C(=O)NCc3ccc(Cl)cc3)cc2O[C@H]2CCN3C(=O)OC[C@@H]3C2)s1 [Compound 33] | 901 | 679 | 144 | – | – | –
22 | 7.31 | CC(C)(C#N)COc1nc(-c2cnn(C(F)F)c2)c(O[C@H]2CCN3C(=O)OC[C@@H]3C2)cc1C(=O)NCc1ccc(Cl)cc1 [Compound 92] | 137 | 417 | 229 | – | – | –
23 | 5.36 | COc1nc(-c2cc[nH]c2)c(O[C@H]2CCN3C(=O)OC[C@@H]3C2)cc1C(=O)NCc1ccc(Cl)cc1 [Compound 28] | 200 | 196 | 103 | – | – | –
24 | 5.23 | COc1nc(N2CC3(CC(O)C3)C2)c(O[C@H]2CCN3C(=O)OC[C@@H]3C2)cc1C(=O)NCc1ccc(Cl)cc1 [Compound 66] | 146 | 648 | 262 | – | – | –
25 | 4.62 | CC(O)COc1nc(-c2cnn(C(F)F)c2)c(O[C@H]2CCN3C(=O)OC[C@@H]3C2)cc1C(=O)NCc1ccc(Cl)cc1 (stereo partly shown) [Compound 93] | 204 | 250 | 59.1 | – | – | –
